Reference: paper PMC12379310 (Virology Journal, 2025)

Biological target: human ether-α-go-go related gene (hERG) potassium channel (Kv11.1) (Homo sapiens, UniProt Q12809)
Experiment: automated whole-cell patch clamp
Type: cell-based

human ether-α-go-go related gene (hERG) potassium channel (Kv11.1), sequence (Q12809 whole entry): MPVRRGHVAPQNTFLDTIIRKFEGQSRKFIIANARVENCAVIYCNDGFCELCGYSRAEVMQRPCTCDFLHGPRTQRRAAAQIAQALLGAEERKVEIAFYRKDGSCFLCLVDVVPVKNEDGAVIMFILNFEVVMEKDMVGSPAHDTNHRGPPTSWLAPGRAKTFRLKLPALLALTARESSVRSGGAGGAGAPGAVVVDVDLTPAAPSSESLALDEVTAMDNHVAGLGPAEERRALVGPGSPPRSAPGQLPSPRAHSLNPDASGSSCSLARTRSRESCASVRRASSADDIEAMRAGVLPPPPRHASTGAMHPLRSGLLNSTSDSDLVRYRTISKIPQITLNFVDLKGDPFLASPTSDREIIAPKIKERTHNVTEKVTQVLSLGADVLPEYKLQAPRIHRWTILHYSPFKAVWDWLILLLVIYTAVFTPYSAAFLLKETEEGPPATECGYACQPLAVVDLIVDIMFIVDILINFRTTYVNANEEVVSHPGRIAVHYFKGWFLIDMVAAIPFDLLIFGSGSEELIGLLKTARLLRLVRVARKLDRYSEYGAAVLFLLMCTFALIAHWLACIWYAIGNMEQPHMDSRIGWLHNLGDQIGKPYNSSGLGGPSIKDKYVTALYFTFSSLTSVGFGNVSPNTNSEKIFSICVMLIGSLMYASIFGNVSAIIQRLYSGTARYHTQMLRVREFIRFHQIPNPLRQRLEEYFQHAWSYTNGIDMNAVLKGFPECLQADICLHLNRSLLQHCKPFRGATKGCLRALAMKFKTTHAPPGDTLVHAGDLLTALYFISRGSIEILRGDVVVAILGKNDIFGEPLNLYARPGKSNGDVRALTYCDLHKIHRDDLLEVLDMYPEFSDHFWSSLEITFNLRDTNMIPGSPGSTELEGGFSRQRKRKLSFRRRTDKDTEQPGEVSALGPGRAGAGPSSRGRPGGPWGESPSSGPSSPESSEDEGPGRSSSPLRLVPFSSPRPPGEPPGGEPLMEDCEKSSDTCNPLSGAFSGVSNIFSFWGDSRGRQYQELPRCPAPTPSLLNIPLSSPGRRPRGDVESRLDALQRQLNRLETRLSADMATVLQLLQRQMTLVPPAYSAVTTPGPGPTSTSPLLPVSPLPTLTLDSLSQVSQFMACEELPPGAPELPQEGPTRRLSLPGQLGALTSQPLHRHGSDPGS

CCOC(=O)c1c(CSc2ccccc2)n(C)c2cc(Br)c(O)c(CN(C)C)c12 [Arbidol]
IC50: 303 nM
